The values that follow come from patent publication US5827737A, “In vitro activation of cytotoxic T cells” (The Scripps Research Institute, priority 1996, dated 1998).

T1: K^b sol (Mus musculus, UniProt P01901)
T1 construct: K^b α1α2α3 domains (274 residues) and murine β2 microglobulin (99 residues); made in house; host or cells: Drosophila S2/M3 cells
T1 sequence (P01901 22-295): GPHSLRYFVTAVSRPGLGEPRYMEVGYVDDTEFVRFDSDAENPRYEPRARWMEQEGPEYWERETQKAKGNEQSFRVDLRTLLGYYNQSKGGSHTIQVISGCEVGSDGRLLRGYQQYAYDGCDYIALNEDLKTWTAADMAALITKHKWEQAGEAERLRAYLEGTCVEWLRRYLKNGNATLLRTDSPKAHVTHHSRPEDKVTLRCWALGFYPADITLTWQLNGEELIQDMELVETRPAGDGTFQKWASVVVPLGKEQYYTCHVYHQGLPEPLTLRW
T1 sequence (P01887 21-119 partner): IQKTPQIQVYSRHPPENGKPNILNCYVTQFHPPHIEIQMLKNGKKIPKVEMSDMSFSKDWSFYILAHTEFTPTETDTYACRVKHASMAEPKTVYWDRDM

B1: ovalbumin protein: ovalbumin (Sigma Chem. Co.) osmotically loaded into the cells (protein, UniProt P01012 2-386, looked up)
Ovalbumin: GSIGAASMEFCFDVFKELKVHHANENIFYCPIAIMSALAMVYLGAKDSTRTQINKVVRFDKLPGFGDSIEAQCGTSVNVHSSLRDILNQITKPNDVYSFSLASRLYAEERYPILPEYLQCVKELYRGGLEPINFQTAADQARELINSWVESQTNGIIRNVLQPSSVDSQTAMVLVNAIVFKGLWEKAFKDEDTQAMPFRVTEQESKPVQMMYQIGLFRVASMASEKMKILELPFASGTMSMLVLLPDEVSGLEQLESIINFEKLTEWTSSNVMEERKIKVYLPRMKMEEKYNLTSVLMAMGITDVFSSSANLSGISSAESLKISQAVHAAHAEINEAGREVVGSAEAGVDAASVSEEFRADHPFLFCIKHIATNAVLFFGRCVSP

Where no end group is shown, it is not given here.

One experiment has as its target T1, K^b sol. Briefly: biochemical. Type of experiment: binding, murine.
Details: not given
For orientation: Kd means the equilibrium constant for the complex coming apart. Take DLRGYVYQGL [VSV-10N]: the affinity, expressed as Kd, was 390 nM. Turning to GYVYQGL [VSV-7, GYVYQGL], the Kd was found to be 53 nM.

In the case of LRGYVYQGL [VSV-9N], binding was characterised by a dissociation constant (Kd) of 7.3 nM.

RGYVYQGLK [VSV-9C] had a Kd of 6.9 nM. The same measure, in the same setting: the same measure for RGYVYQGLKS [VSV-10C]: 21 nM.

The same experiment, now with this note: read-out: KD.
Take `CC[C@H](C)[C@H](NC(=O)[C@@H](NC(=O)[C@@H](N)CO)[C@@H](C)CC)C(=O)N[C@@H](CC(N)=O)C(=O)N[C@@H](Cc1ccccc1)C(=O)N[C@@H](CCC(=O)O)C(=O)N[C@@H](CCCCN)C(=O)N[C@@H](CC(C)C)C(=O)O` [OVA-8, reference compound]: the Kd came to 4.1 nM. On the same count and under the same terms, to LESIINFEKL [OVA-10N] belongs 280 nM; to SIINFEKLT [OVA-9C], 11 nM. Same read-out and setting: to SIINFEKLTE [OVA-10C] belongs 14 nM.

The next experiment concerns B3/CD8 T cell hybridoma. Kind of experiment: Antigen presentation assay: IL-2 production by B3/CD8 measured with CTLL ^3 H thymidine incorporation. The conditions noted are these: peptide added to the culture medium, or protein osmotically loaded. Background: Uptake of a labelled nucleoside into DNA is a usual measure of proliferation.
Turning to B1, the “T cell recognition of K^b -expressing Drosophila cells (IL-2 production)” value was “no recognition occurred”.
